# Assay results taken from the supplement of paper PMC10307832.
# Legend:
# Test in all cases: relative viability (nuclei count vs DMSO), 5 days (fraction); higher = more cells survive
# Imatinib + Luminespib = compound: Cc1ccc(NC(=O)c2ccc(CN3CCN(C)CC3)cc2)cc1Nc1nccc(-c2cccnc2)n1 [Imatinib] + CCNC(=O)c1noc(-c2cc(C(C)C)c(O)cc2O)c1-c1ccc(CN2CCOCC2)cc1 [Luminespib] (partner 0.01 µM)
# Method in brief: (§1)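 Lung cancer cell lines were seeded in 1536-well plates and dosed by pin tool the next day, with either a single drug or a fixed anchor-drug dose combined with five library-drug doses (not always all listed) spaced in √10 steps. Five days later, one step fixed the cells and stained their nuclei (final 0.05% Triton X-100, 1% formaldehyde, 1 ug/ml Hoechst), and nuclei were counted on 4× images. Relative viability is the nuclei count in treated wells divided by the count in vehicle wells, and each value is the median of duplicate plates.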
# Imatinib + OSI-027 = compound: Cc1ccc(NC(=O)c2ccc(CN3CCN(C)CC3)cc2)cc1Nc1nccc(-c2cccnc2)n1 [Imatinib] + COc1cccc2cc(-c3nc([C@H]4CC[C@H](C(=O)O)CC4)n4ncnc(N)c34)[nH]c12 [OSI-027] (partner 0.5 µM)
# Method in brief: as §1
# Imatinib + Crizotinib = compound: Cc1ccc(NC(=O)c2ccc(CN3CCN(C)CC3)cc2)cc1Nc1nccc(-c2cccnc2)n1 [Imatinib] + C[C@@H](Oc1cc(-c2cnn(C3CCNCC3)c2)cnc1N)c1c(Cl)ccc(F)c1Cl [Crizotinib] (partner 1 µM)
# Method in brief: as §1
# Imatinib + Olaparib = compound: Cc1ccc(NC(=O)c2ccc(CN3CCN(C)CC3)cc2)cc1Nc1nccc(-c2cccnc2)n1 [Imatinib] + O=C(c1cc(Cc2n[nH]c(=O)c3ccccc23)ccc1F)N1CCN(C(=O)C2CC2)CC1 [Olaparib] (partner 8 µM)
# Method in brief: as §1
Cell Line,relative viability (Imatinib + Luminespib; first compound 0.02 µM),relative viability (Imatinib + Luminespib; first compound 0.2 µM),relative viability (Imatinib + Luminespib; first compound 2 µM),relative viability (Imatinib + OSI-027; first compound 0.02 µM),relative viability (Imatinib + OSI-027; first compound 0.06325 µM),relative viability (Imatinib + OSI-027; first compound 0.2 µM),relative viability (Imatinib + OSI-027; first compound 0.6325 µM),relative viability (Imatinib + OSI-027; first compound 2 µM),relative viability (Imatinib + Crizotinib; first compound 0.02 µM),relative viability (Imatinib + Crizotinib; first compound 0.06325 µM),relative viability (Imatinib + Crizotinib; first compound 0.2 µM),relative viability (Imatinib + Crizotinib; first compound 0.6325 µM),relative viability (Imatinib + Crizotinib; first compound 2 µM),relative viability (Imatinib + Olaparib; first compound 0.02 µM),relative viability (Imatinib + Olaparib; first compound 0.06325 µM),relative viability (Imatinib + Olaparib; first compound 0.2 µM),relative viability (Imatinib + Olaparib; first compound 0.6325 µM),relative viability (Imatinib + Olaparib; first compound 2 µM),relative viability (Imatinib + Luminespib; first compound 0.6325 µM),relative viability (Imatinib + Luminespib; first compound 0.06325 µM)
PC-14,0.16,0.232,0.165,0.991,0.282,0.856,0.76,0.833,1.15,0.936,0.935,0.958,0.848,0.274,0.229,0.357,0.221,0.244,–,–
ABC-1,0.911,0.445,–,0.516,–,0.504,0.521,0.564,1.34,–,1.43,1.15,1.07,1,–,0.732,0.785,0.581,0.326,–
SW 1573,0.23,0.293,0.233,0.708,0.24,0.685,0.573,0.548,0.996,–,0.956,0.726,0.755,0.62,0.704,0.425,0.485,0.559,0.26,0.348
UMC-11,1.19,1.04,0.96,0.514,0.542,0.64,0.499,0.456,0.702,0.647,0.56,0.564,0.818,0.352,0.514,0.366,0.41,0.301,–,1.22
ChaGo-K-1,0.585,0.603,0.56,0.444,0.511,0.538,0.56,0.491,1.12,1.35,1.31,0.976,1.05,0.389,–,0.394,0.42,0.45,0.624,0.592
A-427,1.06,0.868,0.9,0.503,–,0.5,0.447,0.47,0.981,–,0.993,0.755,–,0.797,–,0.754,0.715,0.748,0.903,–
NCI-H358,0.317,0.501,0.418,0.861,0.382,0.843,0.635,0.855,0.616,–,0.571,0.555,0.616,0.733,0.699,0.613,0.549,0.556,0.308,0.608
NCI-H520,0.21,0.23,0.198,0.214,0.255,0.242,0.224,0.273,0.764,0.978,0.874,0.963,0.647,0.368,0.356,0.305,0.301,0.371,0.189,0.236
NCI-H1993,0.949,0.885,0.854,0.538,0.491,0.617,0.543,0.625,–,0.905,–,0.927,0.815,1.15,1.04,1.16,0.968,0.983,0.608,0.745
H3255,0.922,–,0.777,0.568,0.662,0.539,0.612,0.548,0.636,–,0.816,0.889,0.793,0.576,0.572,0.565,0.566,0.612,0.865,0.415
NCI-H838,0.33,0.363,0.266,0.407,0.389,0.406,0.407,0.421,0.956,1.25,–,0.736,0.931,0.88,0.988,–,0.883,0.852,0.275,0.3
LXF-289,0.805,0.615,0.672,0.791,0.556,0.814,0.754,0.724,0.881,0.826,0.876,0.814,0.777,1.1,–,1.35,–,1.13,0.566,0.5
HCC-15,0.311,0.358,0.297,0.716,–,0.623,0.683,0.666,0.683,0.779,0.9,0.792,0.817,0.773,–,0.719,0.791,0.742,0.33,–
NCI-H1437,1.25,1.28,1.08,0.998,0.945,–,0.911,0.891,1.02,1.15,1.1,1.07,0.878,0.692,0.703,0.719,0.686,0.604,1.22,1.18
LK-2,0.168,0.168,0.199,0.178,0.207,0.151,0.217,0.212,0.213,–,0.224,0.236,0.179,0.725,0.629,0.711,–,0.92,0.196,0.174
201T,1.09,1.11,1.03,0.865,0.798,0.762,0.761,–,–,–,1.09,0.993,1.02,0.879,0.873,0.845,0.814,0.836,0.96,–
LOU-NH91,0.319,0.361,0.303,0.759,0.708,0.745,0.699,0.658,0.747,0.778,0.767,0.677,0.769,1.04,0.982,–,0.879,0.894,0.347,0.35
BEN,0.402,0.29,0.156,0.285,–,0.262,0.287,0.302,1.04,0.847,1,0.762,0.93,1.2,1.14,1.01,1.08,1.06,0.355,–
